Data on 35 compounds can be found in patent publication US11384055B2 (BIOMARIN PHARMACEUTICAL INC., priority 2017, dated 2022).

For one experiment, the target named is T1, Human GO (Homo sapiens, UniProt Q9UJM8).
T1 construct: purchased Novus Biologicals NBP1-72412
T1 sequence (Q9UJM8 1-370): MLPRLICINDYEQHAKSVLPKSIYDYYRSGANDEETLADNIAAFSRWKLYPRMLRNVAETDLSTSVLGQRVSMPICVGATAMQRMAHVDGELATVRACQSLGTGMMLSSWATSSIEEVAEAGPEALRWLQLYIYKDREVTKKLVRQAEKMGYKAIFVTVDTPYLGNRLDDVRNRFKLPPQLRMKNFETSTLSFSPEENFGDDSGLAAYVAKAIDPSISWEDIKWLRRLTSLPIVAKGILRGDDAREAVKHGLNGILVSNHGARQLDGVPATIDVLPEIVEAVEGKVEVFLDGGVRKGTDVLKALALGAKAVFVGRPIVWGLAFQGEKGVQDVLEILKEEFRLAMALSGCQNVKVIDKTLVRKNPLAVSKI
Kind of experiment: GO enzymatic assay (coupled fluorescence/HRP assay, glycolate substrate). Type of experiment: biochemical.
Details: not given
The gist of the method: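 Human GO incubated with glycolate substrate in 50 mM potassium phosphate, pH 7, with varying inhibitor concentrations. Activity read by coupled HRP fluorescence. IC50 taken from variable-slope sigmoidal dose-response fits of percent inhibition relative to DMSO control.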
Broadly, the IC50 is the concentration that inhibits the measured activity by half. `O=C(O)c1[nH]nnc1Oc1ccc(-c2ccc(Cl)c(Cl)c2)cc1` [Compound 165, 4-((3′,4′-dichloro-[1,1′-biphenyl]-4-yl)oxy)-1H-1,2,3-triazole-5-carboxylic acid 2,2,2-trifluoroacetate] yielded an IC50 below 100 nM.

The experiment is the same for the next values; noted with them: Table 1; read-out: Range (range of IC50 values calculated from the enzymatic assays).
On to `O=C(O)c1[nH]nnc1Nc1ccc(-c2ccc(OC(F)(F)F)c(Cl)c2)cc1` [Compound 155, 4-((3′-chloro-4′-(trifluoromethoxy)-[1,1′-biphenyl]-4-yl)amino)-1H-1,2,3-triazole-5-carboxylic acid], for which the half-inhibitory concentration (IC50) was below 100 nM.

For `O=C(O)c1[nH]nnc1Oc1ccc(-c2ccc(OC(F)(F)F)c(Cl)c2)cc1` [Compound 156, 4-((3′-chloro-4′-(trifluoromethoxy)-[1,1′-biphenyl]-4-yl)oxy)-1H-1,2,3-triazole-5-carboxylic acid], the IC50 is below 100 nM. Take `O=C(O)c1[nH]nnc1Oc1ccc(-c2cccc(C(=O)N3CCCCC3)c2)cc1` [Compound 157, 4-((3′-(piperidine-1-carbonyl)-[1,1′-biphenyl]-4-yl)oxy)-1H-1,2,3-triazole-5-carboxylic acid 2,2,2-trifluoroacetate]: the IC50 is below 100 nM. `O=C(O)c1[nH]nnc1COc1ccc2cc(Cl)ccc2c1` [Compound 158, 4-(((6-chloronaphthalen-2-yl)oxy)methyl)-1H-1,2,3-triazole-5-carboxylic acid 2,2,2-trifluoroacetate]: the half-inhibitory concentration (IC50) is below 100 nM. With `O=C(O)c1[nH]nnc1Oc1ccc(-c2cccc(CN3CCCCC3)c2)cc1` [Compound 160, 4-((3′-(piperidin-1-ylmethyl)-[1,1′-biphenyl]-4-yl)oxy)-1H-1,2,3-triazole-5-carboxylic acid 2,2,2-trifluoroacetate], the IC50 is 100 to 1000 nM.

As to `O=C(O)c1[nH]nnc1Oc1ccc(-c2ccc(C(F)(F)F)cc2)cc1` [Compound 161, 4-((4′-(trifluoromethyl)-[1,1′-biphenyl]-4-yl)oxy)-1H-1,2,3-triazole-5-carboxylic acid], the IC50 is below 100 nM. Still for that read-out and setting: the figure for `O=C(O)c1[nH]nnc1Oc1ccc(-c2cccc(OC3CCCC3)c2)cc1` [Compound 162, 4-((3′-(cyclopentyloxy)-[1,1′-biphenyl]-4-yl)oxy)-1H-1,2,3-triazole-5-carboxylic acid] is below 100 nM.

On to `O=C(O)c1[nH]nnc1Oc1ccc(-c2ccc(Cl)c(OC(F)(F)F)c2)cc1` [Compound 163, 4-((4′-chloro-3′-(trifluoromethoxy)-[1,1′-biphenyl]-4-yl)oxy)-1H-1,2,3-triazole-5-carboxylic acid], for which the half-inhibitory concentration (IC50) was below 100 nM. Take `O=C(O)c1[nH]nnc1Sc1ccc(-c2cccc(N3CCCCC3)c2)cc1` [Compound 164, 4-((3′-(piperidin-1-yl)-[1,1′-biphenyl]-4-yl)thio)-1H-1,2,3-triazole-5-carboxylic acid 2,2,2-trifluoroacetate]: the IC50 is below 100 nM. On to `O=C(O)c1[nH]nnc1C(F)(F)c1ccc(Cl)c(Cl)c1` [Compound 166, 4-((3,4-dichlorophenyl)difluoromethyl)-1H-1,2,3-triazole-5-carboxylic acid], for which the IC50 was below 100 nM.

With `O=C(O)c1[nH]nnc1OC1CCC(F)(F)CC1` [Compound 167, 4-((4,4-difluorocyclohexyl)oxy)-1H-1,2,3-triazole-5-carboxylic acid 2,2,2-trifluoroacetate], the IC50 is below 100 nM.

In the case of `O=C(O)c1[nH]nnc1OC1CC2CCC1C2` (centres unmarked) [Compound 168, 4-(bicyclo[2.2.1]heptan-2-yloxy)-1H-1,2,3-triazole-5-carboxylic acid], the IC50 was below 100 nM.

Staying with this experiment, now noted: Table 2; read-out: Range (range of IC50 values calculated from the enzymatic assays).
For the compound `O=C(O)c1[nH]nnc1Sc1ccc(-c2ccc(N3CCCCC3)cc2)cc1` [Compound 169, 4-((4′-(piperidin-1-yl)-[1,1′-biphenyl]-4-yl)thio)-1H-1,2,3 triazole-5-carboxylic acid 2,2,2-trifluoroacetate], the IC50 is below 100 nM.

For the compound `O=C(O)c1[nH]nnc1Sc1ccc(-c2cccc(OCC3CC3)c2)cc1` [Compound 170, 4-((3′-(cyclopropylmethoxy)-[1,1′-biphenyl]-4-yl)thio)-1H-1,2,3-triazole-5-carboxylic acid 2,2,2-trifluoroacetate], the IC50 was below 100 nM. As for `O=C(O)c1[nH]nnc1CSc1ccc2cc(Cl)ccc2c1` [Compound 171, 4-(((6-chloronaphthalen-2-yl)thio)methyl)-1H-1,2,3-triazole-5-carboxylic acid 2,2,2-trifluoroacetate], the IC50 was below 100 nM.

With `O=C(O)c1[nH]nnc1SC1CCc2cc(F)c(F)cc2C1` (centres unmarked) [Compound 172, 4-((6,7-difluoro-1,2,3,4-tetrahydronaphthalen-2-yl)thio)-1H-1,2,3-triazole-5-carboxylic acid], the IC50 was below 100 nM. In the case of `O=C(O)c1[nH]nnc1SC1Cc2cc(F)c(F)cc2C1` [Compound 173, 4-((5,6-difluoro-2,3-dihydro-1H-inden-2-yl)thio)-1H-1,2,3-triazole-5-carboxylic acid], the half-inhibitory concentration (IC50) is below 100 nM. Same read-out and setting: the figure for `O=C(O)c1[nH]nnc1SCc1ccc2cc(Cl)ccc2c1` [Compound 174, 4-(((6-chloronaphthalen-2-yl)methyl)thio)-1H-1,2,3-triazole-5-carboxylic acid 2,2,2-trifluoroacetate] is below 100 nM. Take `CN1CCCc2cc(-c3ccc(Sc4nn[nH]c4C(=O)O)cc3)ccc21` [Compound 175, 4-((4-(1-methyl-1,2,3,4-tetrahydroquinolin-6-yl)phenyl)thio)-1H-1,2,3-triazole-5-carboxylic acid 2,2,2-trifluoroacetate]: the IC50 is below 100 nM. Take `O=C(O)c1[nH]nnc1SCc1ccc(Cl)c(Cl)c1` [Compound 176, 4-((3,4-dichlorobenzyl)thio)-1H-1,2,3-triazole-5-carboxylic acid]: the IC50 is below 100 nM. Consider `O=C(O)c1[nH]nnc1SCc1ccc(-c2ccc(OC(F)(F)F)cc2)cc1` [Compound 177], for which the IC50 is below 100 nM. In the case of `O=C(O)c1[nH]nnc1CNc1ccc2cc(Cl)ccc2c1` [Compound 178, 4-(((6-chloronaphthalen-2-yl)amino)methyl)-1H-1,2,3-triazole-5-carboxylic acid 2,2,2-trifluoroacetate], the half-maximal inhibitory concentration (IC50) was below 100 nM.

With `CN(Cc1nn[nH]c1C(=O)O)c1ccc(Cl)c(Cl)c1` [Compound 179, 4-(((3,4-dichlorophenyl)(methyl)amino)methyl)-1H-1,2,3-triazole-5-carboxylic acid 2,2,2-trifluoroacetate], the IC50 was below 100 nM.

For `CN(Cc1nn[nH]c1C(=O)O)c1ccc2cc(Cl)ccc2c1` [Compound 180, 4-(((6-chloronaphthalen-2-yl)(methyl)amino)methyl)-1H-1,2,3-triazole-5-carboxylic acid 2,2,2-trifluoroacetate], the half-maximal inhibitory concentration (IC50) was below 100 nM. The same measure, in the same setting: next, `O=C(O)c1[nH]nnc1Nc1ccc(-c2ccc(Cl)cc2)c(Cl)c1` [Compound 181, 4-((2,4′-dichloro-[1,1′-biphenyl]-4-yl)amino)-1H-1,2,3-triazole-5-carboxylic acid]: below 100 nM; `O=C(O)c1[nH]nnc1NCc1ccc2cc(Cl)ccc2c1` [Compound 182, 4-(((6-chloronaphthalen-2-yl)methyl)amino)-1H-1,2,3-triazole-5-carboxylic acid]: 100 to 1000 nM. On the same count and under the same terms, next, `O=C(O)c1[nH]nnc1Nc1ccc(-c2ccc(C(F)(F)F)cc2)cc1` [Compound 183, 4-((4′-(trifluoromethyl)-[1,1′-biphenyl]-4-yl)amino)-1H-1,2,3-triazole-5-carboxylic acid]: below 100 nM; `CCN(Cc1nn[nH]c1C(=O)O)c1ccc(Cl)c(Cl)c1` [Compound 185, 4-(((3,4-dichlorophenyl)(ethyl)amino)methyl)-1H-1,2,3-triazole-5-carboxylic acid]: 100 to 1000 nM; `O=C(O)c1[nH]nnc1Nc1cnc2cc(Cl)ccc2c1` [Compound 186, 4-((7-chloroquinolin-3-yl)amino)-1H-1,2,3-triazole-5-carboxylic acid]: 1000 to 10000 nM. With `CCN(Cc1nn[nH]c1C(=O)O)c1ccc2cc(Cl)ccc2c1` [Compound 187, 4-(((6-chloronaphthalen-2-yl)(ethyl)amino)methyl)-1H-1,2,3-triazole-5-carboxylic acid], the IC50 is 100 to 1000 nM. As to `O=C(O)c1[nH]nnc1CN1CCCc2cc(Cl)ccc21` [Compound 188, 4-((6-chloro-3,4-dihydroquinolin-1(211)-yl)methyl)-1H-1,2,3-triazole-5-carboxylic acid], the IC50 is 1000 to 10000 nM. On to `CCN(Cc1nn[nH]c1C(=O)O)c1ccc(-c2ccc(OC(F)(F)F)cc2)cc1` [Compound 189, 4-((ethyl(4′-(trifluoromethoxy)-[1,1′-biphenyl]-4-yl)amino)methyl)-1H-1,2,3-triazole-5-carboxylic acid 2,2,2-trifluoroacetate], for which the IC50 is 100 to 1000 nM.

Turning to `O=C(O)c1[nH]nnc1NC1Cc2cc(Cl)c(Cl)cc2C1` [Compound 190, 4-((5,6-dichloro-2,3-dihydro-1H-inden-2-yl)amino)-1H-1,2,3-triazole-5-carboxylic acid 2,2,2-trifluoroacetate], the IC50 was 100 to 1000 nM. On to `O=C(O)c1[nH]nnc1CN(Cc1ccccc1)c1ccc(C2CCCCC2)cc1` [Compound 194, 4-((benzyl(4-cyclohexylphenyl)amino)methyl)-1H-1,2,3-triazole-5-carboxylic acid], for which the IC50 was 1000 to 10000 nM.
